# Results published in article PMC9600589, “The Heptaprenyl Diphosphate Synthase (Coq1) Is the Target of a Lipophilic Bisphosphonate That Protects Mice against Toxoplasma gondii Infection” (mBio, 2022).
# Assays:
# hTERT cells = test: Cytotoxicity to hTERT cells (alamarBlue); conditions: for % Inhibition (cytotoxicity): hTERT cells
# Experimental: The cytotoxicity was tested using an alamarBlue assay as described by Recher et al. ([67]).
# T. cruzi = tested on: T. cruzi; design: method as in PMID 24789335; conditions: cited from earlier work
# T. gondii RH strain = test: Acute lethal infection of mice with RH tachyzoites; type: in vivo, Swiss Webster mice; conditions: mice infected with 100 RH tachyzoites, intraperitoneal, daily for 10 days from 6 h postinfection
# Experimental: (§1) At this point, live mice were inoculated with δ-luciferin for visualization of the infection in an IVIS illumination system ([34]).
# Experiments were carried out as described previously ([49]) using 100 T. gondii tachyzoites of the RH strain to infect Webster mice. Drugs were dissolved in 10% kolliphor HS 15 and were inoculated intraperitoneally. Treatment was initiated 6 h after infection and administered daily for 10 days.
# T. gondii RH-cLuc-GFP = test: Dissemination of infection, luciferase-expressing RH parasites, in vivo imaging; design: species or system Swiss Webster mice; conditions: 1 mg/kg single daily dose for 8 days
# From the text: as §1
# [1] = tested on: T. gondii RH parental strain; test: Plaque assay measuring growth reversibility after drug removal; type: cell-based, Toxoplasma gondii; conditions: 7 days with 1 μM or 2 μM, then 7 days without drug
smiles,measurement,setting,value
CCCCCCCCCCn1cc[n+](CC(P(=O)([O-])O)P(=O)(O)O)c1 (stereo not shown) [BPH-1218],toxicity against human fibroblast cells,hTERT cells,very little toxicity
same,% Inhibition (cytotoxicity),hTERT cells; at 4X EC50 (concentration in μM in brackets),4.30 ± 2.31%
same,% Inhibition (cytotoxicity),hTERT cells; at 10X EC50 (concentration in μM in brackets),10.28 ± 1.07%
same,decrease in UQ9 biosynthesis,T. cruzi,40%
same,ED50,T. gondii RH strain,0.69 mg/kg/day
same,effect on virulence and dissemination of the infection,T. gondii RH-cLuc-GFP,remarkable effect on both virulence and dissemination of the infection
same,reversibility of growth inhibition after drug removal,[1],irreversible
